Experiments:
sGC = target: T1, sGC (Rattus norvegicus, UniProt P20595); assay: Action at a recombinant guanylate cyclase reporter cell line (CHO reporter cell); type: cell-based; conditions: CHO reporter cell in vitro
T1 construct: expressed in transfected cells; host or cells: CHO reporter cell
Experimental: The cellular action of the compounds according to the invention is determined at a recombinant guanylate cyclase reporter cell line, as described in F. Wunder et al., Anal. Biochem. 339, 104-112 (2005).

saphenous artery = assay: Vasorelaxant effect in vitro (phenylephrine-contracted saphenous artery rings); set-up: species or system Rabbits; conditions: Oryctolagus cuniculus; rabbit saphenous artery rings, phenylephrine-induced contraction
Experimental: Rabbits are anaesthetized and sacrificed by intravenous injection of thiopental sodium (about 50 mg/kg) and exsanguinated. The saphenous artery is removed and divided into rings 3 mm wide. the rings are mounted singly on in each case a pair of triangular hooks open at the end and made of 0.3 mm-thick special wire (Remanium®). Each ring is placed under an initial tension in 5 ml organ baths with Krebs-Henseleit solution which is at 37° C., is gassed with carbogen and has the following composition: NaCl 119 mM; KCl 4.8 mM; CaCl2×2 H2O 1 mM; MgSO4×7 H2O 1.4 mM; KH2PO4 1.2 mM; NaHCO3 25 mM; glucose 10 mM; bovine serum albumin 0.001%. The force of contraction is detected with Statham UC2 cells, amplified and digitized via A/D converters (DAS-1802 HC, Keithley Instruments, Munich) and recorded in parallel on chart recorders. Contractions are induced by addition of phenylephrine.
After several (generally 4) control cycles, the substance to be investigated is added in each further run in increasing dosage, and the level of the contraction achieved under the influence of the test substance is compared with the level of the contraction reached in the last preceding run. The concentration necessary to reduce the contraction reached in the preceding control by 50% is calculated from this (IC50). The standard application volume is 5 μl. The proportion of DMSO in the bath solution corresponds to 0.1%.

[1] = target: T2, soluble guanylate cyclase (sGC) (Rattus norvegicus, UniProt P20595); assay: Stimulation of sGC enzyme activity (PPi detection, luciferase); type: biochemical; conditions: sGC enzyme in vitro; for EC50: read-out: EC50 (concentration at 50% of maximum efficacy), activating action at the sGC enzyme
T2 construct: made in house; host or cells: Sf9 insect cells (baculovirus)
Experimental: Soluble guanylate cyclase (sGC) converts on stimulation GTP into cGMP and pyrophosphate (PPi). PPi is detected with the aid of the assay described below. The signal produced in the assay increases as the reaction progresses and serves as a measure of the sGC enzyme activity under the given stimulation.
To carry out the assay, 29 μl of enzyme solution [0-10 nM soluble guanylate cyclase (prepared according to Honicka et al., J. Mol. Med. 77, 14-23 (1999)) in 50 mM TEA, 2 mM MgCl2, 0.1% BSA (fraction V), 0.005% Brij®, pH 7.5] are initially introduced into a microplate, and 1 μl of the substance to be tested (as a serially diluted solution in DMSO) is added. The mixture is incubated at room temperature for 10 min. Then 20 μl of detection mix [1.2 nM Firefly Luciferase (Photinus pyralis luciferase, Promega), 29 μM dehydroluciferin (prepared according to Bitler & McElroy, Arch. Biochem. Biophys. 72, 358 (1957)), 122 μM luciferin (Promega), 153 μM ATP (Sigma) and 0.4 mM DTT (Sigma) in 50 mM TEA, 2 mM MgCl2, 0.1% BSA (fraction V), 0.005% Brij®, pH 7.5] are added. The enzyme reaction is started by adding 20 μl of substrate solution [1.25 mM guanosine 5′-triphosphate (Sigma) in 50 mM TEA, 2 mM MgCl2, 0.1% BSA (fraction V), 0.005% Brij®, pH 7.5] and measured continuously in a luminometer. The extent of the stimulation by the substance to be tested can be determined relative to the signal of the unstimulated reaction.
The activation of haem-free guanylate cyclase is examined by addition of 25 μM of 1H-1,2,4-oxadiazolo[4,3-a]quinoxalin-1-one (ODQ) to the enzyme solution and subsequent incubation for 30 minutes and compared to the stimulation of the native enzyme.

GAL4-PPARγ = target: T3, GAL4-PPARγ (Homo sapiens, UniProt P37231); assay: Cellular PPAR transactivation assay, GAL4-PPARγ chimera in CHO-K1 cells; type: cell-based; conditions: for Emax: CHO-K1, maximum effect relative to reference compound (Example 73 of EP 1 452 521-A1 = 100%), read-out: PPARγ efficacy; for EC50: CHO-K1 cells, luciferase reporter, 6 h stimulation
T3 construct: PPARγ (amino acids 203-506); expressed in transfected cells
T3 sequence (P37231 203-505 limits assumed): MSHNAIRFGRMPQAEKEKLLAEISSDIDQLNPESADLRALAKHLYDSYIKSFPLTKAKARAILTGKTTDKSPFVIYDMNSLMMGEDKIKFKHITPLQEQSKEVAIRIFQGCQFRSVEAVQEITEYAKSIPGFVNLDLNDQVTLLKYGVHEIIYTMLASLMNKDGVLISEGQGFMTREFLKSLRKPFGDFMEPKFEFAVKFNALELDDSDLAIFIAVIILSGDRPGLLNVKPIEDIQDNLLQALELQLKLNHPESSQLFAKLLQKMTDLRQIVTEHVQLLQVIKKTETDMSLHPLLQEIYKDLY
Source text: (§1) A cellular assay is used to test for potentially activating properties of the compounds according to the invention with respect to the three human isoforms of the peroxisome proliferator-activated receptors (PPARα, PPARγ and PPARδ).
(§2) Since mammalian cells contain different endogenous nuclear receptors which may complicate an unambiguous interpretation of the results, an established chimera system is used in which the respective ligand binding domain of the human PPAR isoforms is fused to the DNA binding domain of the yeast transcription factor GAL4. The resulting GAL4-PPARα, γ and δ chimeras are co-transfected and stably expressed in CHO cells having a reporter construct.
(§3) The GAL4-PPAR expression constructs contain the ligand binding domain of PPARα (amino acids 167-468), PPARγ (amino acids 203-506) and PPARδ (amino acids 138-442) which are PCR-amplified and cloned into the vector pcDNA3.1. The respective expression vectors already contain the GAL4 DNA binding domain (amino acids 1-147) of the vector pFC2-dbd (Stratagene). The reporter construct, which contains five copies of the GAL4 binding site upstream of a thymidine kinase promoter, expresses firefly luciferase (Photinus pyralis) following activation and binding of GAL4-PPARα, γ or δ.
(§4) The day before the test, CHO-K1 cells (chinese hamster ovary; ATCC CCL-61) each stably expressing one of the above-described GAL4-PPAR chimeras and the luciferase reporter gene construct are sown in medium [Optimem (GIBCO) with 2% activated carbon-purified foetal calf serum (Hyclone), 1.35 mM sodium pyruvate (GIBCO) and 0.2% sodium bicarbonate (GIBCO)] in a density of 1×10^3 cells in 96-well microtitre plates (Greiner) and kept in a cell incubator (96% atmospheric humidity, 5% v/v CO2, 37° C.). On the test day, the substances to be tested are taken up in the medium mentioned above, but without addition of calf serum, and added in various concentrations to the cells. After a stimulation period of 6 h, the luciferase activity is measured using a video camera. The relative light units measured give, as a function of the substance concentration, a sigmoidal stimulation curve. The EC50 values are calculated using the computer programme GraphPad PRISM (Version 3.02). The maximum effect of a test substance in the respective PPAR assay is determined as efficacy in percent in comparison to an appropriate reference compound whose maximum effect is defined as 100%.
(§5) The reference compound selected here was the compound 2-(3-{[(2-chloro-4-propoxybenzoyl)-amino]methyl}-4-ethoxybenzyl)tetrahydrofuran-2-carboxylic acid [Example 73 of EP 1 452 521-A1] which is described in the prior art as a potent pan-PPAR agonist.

GAL4-PPARδ = target: T4, GAL4-PPARδ (Homo sapiens, UniProt Q03181); assay: Cellular PPAR transactivation assay, GAL4-PPARδ chimera in CHO-K1 cells; type: cell-based; conditions: for Emax: CHO-K1, maximum effect relative to reference compound (Example 73 of EP 1 452 521-A1 = 100%), read-out: PPARδ efficacy; for EC50: CHO-K1 cells, luciferase reporter, 6 h stimulation
T4 construct: PPARδ (amino acids 138-442); expressed in transfected cells
T4 sequence (Q03181 138-441 limits assumed): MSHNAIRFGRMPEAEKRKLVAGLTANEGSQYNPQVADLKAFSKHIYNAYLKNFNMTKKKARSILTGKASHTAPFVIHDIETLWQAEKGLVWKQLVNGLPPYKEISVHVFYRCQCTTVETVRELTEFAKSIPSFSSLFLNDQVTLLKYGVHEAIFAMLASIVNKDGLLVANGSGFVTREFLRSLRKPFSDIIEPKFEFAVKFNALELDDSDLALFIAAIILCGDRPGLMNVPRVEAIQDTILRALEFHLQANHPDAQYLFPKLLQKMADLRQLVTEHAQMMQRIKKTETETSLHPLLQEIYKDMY
Source text: as §1, §2, §3, §4, §5

GAL4-PPARα = target: T5, GAL4-PPARα (Homo sapiens, UniProt Q07869); assay: Cellular PPAR transactivation assay, GAL4-PPARα chimera in CHO-K1 cells; type: cell-based; conditions: for Emax: CHO-K1, maximum effect relative to reference compound (Example 73 of EP 1 452 521-A1 = 100%), read-out: PPARα efficacy; for EC50: CHO-K1 cells, luciferase reporter, 6 h stimulation
T5 construct: expressed in transfected cells
T5 sequence (Q07869 167-468): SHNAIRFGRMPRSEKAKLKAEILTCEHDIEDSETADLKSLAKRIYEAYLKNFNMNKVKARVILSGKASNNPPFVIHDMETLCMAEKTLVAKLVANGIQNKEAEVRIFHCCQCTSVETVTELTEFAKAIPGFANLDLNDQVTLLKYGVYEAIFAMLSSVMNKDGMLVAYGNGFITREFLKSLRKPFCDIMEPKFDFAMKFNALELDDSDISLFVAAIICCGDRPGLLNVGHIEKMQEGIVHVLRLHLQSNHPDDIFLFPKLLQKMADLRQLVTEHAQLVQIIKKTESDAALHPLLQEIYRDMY
Source text: as §1, §2, §3, §4, §5

T1 sequence (P19686 whole entry partner): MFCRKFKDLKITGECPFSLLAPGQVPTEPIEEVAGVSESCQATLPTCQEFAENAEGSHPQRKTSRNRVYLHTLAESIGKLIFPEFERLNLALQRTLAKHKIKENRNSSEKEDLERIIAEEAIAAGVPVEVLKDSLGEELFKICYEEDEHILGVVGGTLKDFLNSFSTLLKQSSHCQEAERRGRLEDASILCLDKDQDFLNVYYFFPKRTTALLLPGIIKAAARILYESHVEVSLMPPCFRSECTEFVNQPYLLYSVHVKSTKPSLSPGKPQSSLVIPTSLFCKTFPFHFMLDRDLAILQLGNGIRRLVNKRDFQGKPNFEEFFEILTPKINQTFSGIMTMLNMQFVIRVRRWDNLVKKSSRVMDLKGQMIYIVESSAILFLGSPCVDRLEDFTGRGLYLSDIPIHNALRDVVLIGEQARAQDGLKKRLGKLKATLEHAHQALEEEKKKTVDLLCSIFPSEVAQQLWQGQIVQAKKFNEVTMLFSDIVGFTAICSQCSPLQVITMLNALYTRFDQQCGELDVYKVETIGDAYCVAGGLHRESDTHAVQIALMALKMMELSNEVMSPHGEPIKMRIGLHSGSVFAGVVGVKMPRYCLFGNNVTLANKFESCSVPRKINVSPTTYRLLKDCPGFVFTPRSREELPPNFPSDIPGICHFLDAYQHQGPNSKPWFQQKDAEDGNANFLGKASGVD
T1 sequence (P20595 whole entry): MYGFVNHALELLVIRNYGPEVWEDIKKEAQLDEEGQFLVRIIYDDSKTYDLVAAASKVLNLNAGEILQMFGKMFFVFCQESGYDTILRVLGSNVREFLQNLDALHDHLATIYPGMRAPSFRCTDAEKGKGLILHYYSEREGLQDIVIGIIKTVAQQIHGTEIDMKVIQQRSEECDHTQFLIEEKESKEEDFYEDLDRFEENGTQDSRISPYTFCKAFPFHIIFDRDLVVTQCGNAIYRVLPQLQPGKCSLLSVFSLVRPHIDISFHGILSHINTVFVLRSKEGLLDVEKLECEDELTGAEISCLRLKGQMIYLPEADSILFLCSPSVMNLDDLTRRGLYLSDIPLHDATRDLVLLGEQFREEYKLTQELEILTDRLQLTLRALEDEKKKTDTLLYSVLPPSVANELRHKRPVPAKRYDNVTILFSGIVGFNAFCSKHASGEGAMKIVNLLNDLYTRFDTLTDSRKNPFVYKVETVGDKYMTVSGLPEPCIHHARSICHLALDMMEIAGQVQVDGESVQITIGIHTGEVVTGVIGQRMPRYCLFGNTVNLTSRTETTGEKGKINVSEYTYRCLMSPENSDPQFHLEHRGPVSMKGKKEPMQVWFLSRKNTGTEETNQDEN
T2 sequence (P19686 whole entry partner): as the sequence (P19686 whole entry partner) above
T2 sequence (P20595 whole entry): as the sequence (P20595 whole entry) above

Compound: CCOC(c1ccc(Cl)c(NC(=O)[C@H](c2ccc(Cl)cc2)[C@@H](C)C(F)(F)F)c1)C1(C(=O)O)CCC1 (single isomer, unassigned) [Example 109]
- MEC (minimum effective concentration), sGC-activating activity in the CHO reporter cell (sGC): 0.3 nM
- IC50 (saphenous artery): 338 nM
- MEC (minimum effective concentration), activating action at the sGC enzyme [1]: 0.7 nM
- EC50 [1]: 20 nM

Compound: O=C(Nc1cc(CC2(C(=O)O)CC2)ccc1F)[C@H](c1ccc(Cl)cc1)C1CCCC1(F)F (single isomer, unassigned; (+)) [Example 68]
- Emax (GAL4-PPARγ): 0%
- EC50 (GAL4-PPARγ): > 10000 nM
- Emax (GAL4-PPARδ): 0%
- EC50 (GAL4-PPARδ): > 10000 nM
- MEC (minimum effective concentration), sGC-activating activity in the CHO reporter cell (sGC): 1 nM
- Emax (GAL4-PPARα): 0%
- EC50 (GAL4-PPARα): > 10000 nM
- MEC (minimum effective concentration), activating action at the sGC enzyme [1]: 2.6 nM
- EC50 [1]: 45 nM

Compound: COC(c1ccc(Cl)c(NC(=O)[C@H](c2ccc(Cl)cc2)[C@@H](C)C(F)(F)F)c1)C1(C(=O)O)CC1 (single isomer, unassigned; (+)) [Example 89]
- Emax (GAL4-PPARγ): 0%
- EC50 (GAL4-PPARγ): > 10000 nM
- Emax (GAL4-PPARδ): 0%
- EC50 (GAL4-PPARδ): > 10000 nM
- MEC (minimum effective concentration), sGC-activating activity in the CHO reporter cell (sGC): 3 nM
- Emax (GAL4-PPARα): 0%
- EC50 (GAL4-PPARα): > 10000 nM
- MEC (minimum effective concentration), activating action at the sGC enzyme [1]: 3.9 nM
- EC50 [1]: 70 nM

Compound: C[C@H]([C@H](C(=O)Nc1cc(CC2(C(=O)O)CC2)ccc1Cl)c1ccc(Cl)cc1F)C(F)(F)F [Example 32, (+)-1-(4-chloro-3-{[(2S,3R)-2-(4-chloro-2-fluoro-phenyl)-4,4,4-trifluoro-3-methylbutanoyl]-amino}benzyl)cyclopropanecarboxylic acid]
- Emax (GAL4-PPARγ): 30%
- EC50 (GAL4-PPARγ): 1900 nM
- Emax (GAL4-PPARδ): 0%
- EC50 (GAL4-PPARδ): > 10000 nM
- MEC (minimum effective concentration), sGC-activating activity in the CHO reporter cell (sGC): 2.3 nM
- Emax (GAL4-PPARα): 0%
- EC50 (GAL4-PPARα): > 10000 nM
- MEC (minimum effective concentration), activating action at the sGC enzyme [1]: 0.9 nM
- EC50 [1]: 7.3 nM

Compound: COc1cc([C@@H](C(=O)Nc2cc(CC3(C(=O)O)CC3)ccc2Cl)[C@@H](C)C(F)(F)F)ccc1Cl [Example 43, 1-(4-chloro-3-{[(2S,3R)-2-(4-chloro-3-methoxy-phenyl)-4,4,4-trifluoro-3-methylbutanoyl]amino}-benzyl)cyclopropanecarboxylic acid]
- Emax (GAL4-PPARγ): 10%
- EC50 (GAL4-PPARγ): 1800 nM
- Emax (GAL4-PPARδ): 0%
- EC50 (GAL4-PPARδ): > 10000 nM
- MEC (minimum effective concentration), sGC-activating activity in the CHO reporter cell (sGC): 3 nM
- Emax (GAL4-PPARα): 0%
- EC50 (GAL4-PPARα): > 10000 nM
- MEC (minimum effective concentration), activating action at the sGC enzyme [1]: 3.4 nM
- EC50 [1]: 24 nM

Compound: C[C@H]([C@H](C(=O)Nc1cc(CC2(C(=O)O)CC2)ccc1F)c1ccc(Cl)cc1)C(F)(F)F [Example 51, (+)-1-(3-{[(2S,3R)-2-(4-Chlorophenyl)-4,4,4-trifluoro-3-methylbutanoyl]amino}-4-fluorobenzyl)-cyclopropanecarboxylic acid]
- Emax (GAL4-PPARγ): 20%
- EC50 (GAL4-PPARγ): 1900 nM
- Emax (GAL4-PPARδ): 0%
- EC50 (GAL4-PPARδ): > 10000 nM
- MEC (minimum effective concentration), sGC-activating activity in the CHO reporter cell (sGC): 0.3 nM
- Emax (GAL4-PPARα): 0%
- EC50 (GAL4-PPARα): > 10000 nM
- MEC (minimum effective concentration), activating action at the sGC enzyme [1]: 3.0 nM
- EC50 [1]: 21 nM

Reference: US9018258B2, “Substituted 1-benzylcycloalkylcarboxylic acids and the use thereof” (Bayer Intellectual Property GmbH, priority 2010, dated 2015)
